Assay results from patent US20230303481A1, “LONG-ACTING LOW-ADDICTION HNK DERIVATIVE AND PREPARATION METHOD THEREFOR” (SHENZHEN RUIJIAN BIOTECHNOLOGY CO., LTD, priority 2020, published 2023).
Entries after “also recorded” stand apart in the source; their conditions may differ. Structures can show the parent of a compound that is named as a salt.

Assays:
mice [1] = experiment: Forced swimming test (FST), immobility time; type: in vivo; conditions: for antidepressant effect: dose not given; for course of antidepressant efficacy within 7 days: 1 hour to 7 days
Method: One hour before the forced swimming test (FST), the mice were transferred to the laboratory. The test was conducted under normal light condition and monitored by a digital camera. During the test, the mice were individually placed in transparent glass cylinders (28.5 cm in height, 14 cm in diameter) filled with 20 cm height of water (23±1° C.). On the first day, the mice were trained for 6 minutes and then removed from the cylinder. On the second day, the mice were administered saline, HNK, Compound I5, Compound C, and Compound D, and after different time periods, their immobility time was tested. During the last 4 minutes of the entire 6-minute swimming test, the static time was recorded through EthoVision XT (Noldus, Netherlands) of Noldus system. The static time was defined as passive floating, that is there was no other movement except the movements necessary to keep the animal’s head above the water. After every two to three tests, the water in the cylinders was replaced. After the swimming test, the mice were removed from the water and dried under an infrared lamp.
The mice were given 1 mg (A), 10 mg (B) and 30 mg (C) of HNK and Compund I5 by intragastric administration, respectively, and their immobility time was measured after 1 hour and 7 days. The percentage of immobility time is expressed as mean ± SEM. *p<0.05, **p<0.01, compared to base test. Mice of each group was N=8. Saline: saline group; I5: Compound I5 treatment group; HNK: 2R,6R-hydroxynorketamine treatment group.

mice [2] = experiment: Behavioral sensitization experiment (spontaneous activity measurement); type: in vivo, Male C57BL/6J mice; conditions: 5 mg, 10 mg, 30 mg intragastric once a day for 7 days, 7 days withdrawal, challenge on day 15
Method: (§1) Animals: Male C57BL/6J mice of 8-12 weeks old were randomly divided into groups, 10 mice in each group, with body weight of 18-22 g, fed at room temperature (22±1° C.), under humidity of (50±10)%, illumination time from 8:00 to20:00. The mice had free access to food and water, and adapted to the experimental environment for at least 2-3 days before the experiments. All experiments were conducted from 8:00 to 16:00.
1.1 Small animal spontaneous activity measurement: An animal spontaneous activity infrared analysis system consists of a spontaneous activity box, an infrared probe device and a data acquisition system. The size of the spontaneous activity box is 40 cm × 40 cm × 65 cm, with sound isolation and light isolation, and mounted with a ventilation device. The activity statuses of the animals were recorded by the infrared probe, and the numbers of spontaneous activities of the animals were calculated. In order to test the effect of drugs on spontaneous activities of mice, the mice were randomly divided into 4 groups with 10 mice in each group. The Groups included: vehicle, I5, C, D (5.0, 10.0, 30.0 mg/kg), mor (10 mg/kg). The mice were administrated intragastrically once a day in the morning for 7 consecutive days; after that, the drugs withdrew for 7 days (without any treatment). On the 15th day, mice in each group were given Veh and the drugs (5.0, 10.0, 30.0 mg/kg) by intragastric administration to stimulate. Spontaneous activity of the mice within 1 hour was measured immediately after administration at d1, d7 and d15.
Statistical analysis: Experimental data were expressed as X±SEM. Graphpad software was used for statistical analysis, and t-test was used for comparison between two groups. One-way ANOVA analysis was used for comparison among multiple groups, and then LSD method was used for pairwise comparison.

mice [3] = experiment: Position preference (CPP) experiment, three-room system; type: in vivo, Male C57BL/6J mice; conditions: 5 mg, 10 mg, 30 mg intragastric, 6 days training, residence time in white box within 15 min
Method: as §1
1.2 CPP experiment: A three-room CPP system includes black and white boxes (25 cm × 25 cm × 30 cm) at left and right sides, separated by a middle box (10 cm × 25 cm × 30 cm). During the experiment, mice were put into the middle box and could freely move to the black and white boxes. A door with the size of 5 cm × 5 cm was arranged between the middle box and each of the black and white boxes. The experiment adopted a biased procedure, which had three stages of pre-test, training, and test stages. During the whole experiment, the environmental conditions such as light, color and smell in the boxes were guaranteed to be consistent.
Pre-test stage: On days 1-3, the spacer plates between the boxes were removed, and all mice were put into the middle box after being injected with saline subcutaneously, allowing them to move freely in the boxes for 15 min, once a day for 3 consecutive days. The residence time of the mice in the black and white boxes was respectively recorded to determine the natural preference of the mice. The mice were trained with the non-natural preference box as the companion medicine box. […]
Test stage: on day 10, the spacer plates were removed, and the mice were put into the middle box allowing to move freely. At the same time, the residence time of the mice in the white box within 15 min were recorded.
Statistical analysis: Experimental data were expressed as X±SEM. […]
Position preference was tested by a three-room system. […] After continuous training for 6 days, the test was carried out, and the residence times of the mice within 15 min in the white box were recorded. […]

[4] = Applicant's experimental studies on addiction of HNK (general statement); type: in vivo
[5] = mice, 1 mg intragastric, measured after 1 hour and 7 days

Row | Compound | antidepressant effect (immobility time, forced swimming) (mice [1]; mice, 30 mg) | antidepressant effect (mice [1]; mice) | behavioral sensitization effect on mice (mice [2]) | position preference effect on mice (mice [3]) | duration of efficacy after administration (mice [1]; general statement) | antidepressant effect (immobility time, forced swimming) (mice [1]; [5]) | antidepressant effect (immobility time, forced swimming) (mice [1]; mice, 10 mg intragastric) | course of antidepressant efficacy within 7 days (mice [1]; mice, 10 mg intragastric) | course of antidepressant efficacy within 7 days (mice [1]; mice, 30 mg intragastric) | addiction [4] | antidepressant effect at the 7th day after administration (reduction in immobility time) (mice [1]; mice, compared with HNK-treated group, 10 mg and 30 mg groups) | behavioral sensitization effect on mice (mice [2]; dihydrochloride) | position preference effect on mice (mice [3]; dihydrochloride)
1 | CN[C@@]1(c2ccccc2Cl)CCC[C@@H](OC(=O)c2ccccc2)C1=O [Compound C] | no antidepressant effect | no antidepressant effect | behavioral sensitizing effect; also recorded: behavioral sensitization effect | induced position preference | – | – | – | – | – | – | – | – | –
2 | N[C@@]1(c2ccccc2Cl)CCC[C@@H](O)C1=O [HNK, (2R,6R)-6-hydroxydemethylketamine, reference compound] | had antidepressant effect | – | – | – | basically lost activity within one week | no antidepressant effect | had antidepressant effect | decreased rapidly within 7 days, and substantially had no effect on the 7th day | decayed rapidly within 7 days, and substantially had no effect on the 7th day | a certain degree of addiction | – | – | –
3 | N[C@]1(c2ccccc2Cl)CCC[C@H](OC(=O)c2ccc(CN3CCOCC3)cc2)C1=O [Compound D] | no antidepressant effect | no antidepressant effect | behavioral sensitizing effect; also recorded: behavioral sensitization effect | induced position preference | – | – | – | – | – | – | – | – | –
4 | CN(C)c1ccc(C(=O)O[C@@H]2CCC[C@@](N)(c3ccccc3Cl)C2=O)cc1 [Compound I5, (2R, 6R)-6-p-dimethylaminobenzoyloxydemethylketamine dihydrochloride] | had antidepressant effect | – | – | – | – | no antidepressant effect | had antidepressant effect | substantially did not decrease within 7 days | substantially did not decrease within 7 days | – | significant antidepressant effect | no behavioral sensitization effect; also recorded: non-sensitization effect | no position preference effect; also recorded: non-position preference effect
